Experimental data reported in patent US20150164899A1, “INHIBITION OF ADAPTOR ASSOCIATED KINASE 1 FOR THE TREATMENT OF PAIN” (priority 2012, published 2015).
Read-outs that look alike come from different tables or passages of the source.

How the values were obtained:
[1] = target: T1, AAK1 (full-length human protein) (Homo sapiens, UniProt Q2M2I8); assay: P81 filter plate assay; type: biochemical
T1 construct: NP_055726.2
Experimental: Compounds were serially diluted into a Labcyte LDV plate (Labcyte, cat# LP-0200) using a Mutiprobe (PerkinElmer) and Biomek FX (Beckman Coulter) so that the highest compound concentration was at 96 μM. Compounds were then pinged (75 nL per well) into a Greiner 384-well reaction plate (Greiner, #781076) using an ECHO 550 Liquid Handler (Labcyte). A total of 12 μl reaction buffer (IMAP buffer containing Tween and DTT, from Molecular Devices) was then added to each well of columns 1 and 13 for the negative controls and 12 μl of 2×AAK1 (0.2 nM full-length human protein, NCBI accession no. NP_055726.2) was added to the remaining wells. Enzyme was then pre-incubated with compound for 10 minutes at RT. Reactions were initiated upon Minitrak (PerkinElmer) addition of 12 μl substrate mix containing 2× Mu2 (0.2 μM, full length human protein), 2× cold ATP (2 μM), and 1.3 μCi of hot ^33P-ATP. Reactions proceeded for one hour at RT. Meanwhile, Millipore 384-well P81 filter plates (Millipore, catalog # MZPHN0W10) were placed on a plate washer (Zoom Z W, from Titertek) and pre-wet with 50 μl 1% phosphoric acid. Kinase reactions were then stopped upon addition of 24 μl of 2% phosphoric acid to each well and the Minitrak was then used to transfer 40 μl from each well into the pre-wet Millipore 384-well P81 filter plates. Reaction mixtures were incubated for 10 minutes at RT in the P81 plates, followed by washing five times with 100 μl/well of 1% phosphoric acid using the Zoom filter washer. The bottom of each filter plate was sealed followed by addition of 20 μl Microscint 40 to each well, sealing the top of the plates with Flashplate cover, and then waiting one hour until reading on the TopCount (PerkinElmer).

[2] = target: T2, AAK1 (full length human) in transfected HEK293F cells (Homo sapiens, UniProt Q2M2I8); assay: HEK281 cell-based assay (phospho-mu2 Western blot); conditions: HEK281 cell-based assay, read-out: CBA IC50
T2 construct: expressed in transfected cells; host or cells: HEK293F
Experimental: HEK293F cells were cultured in media containing DMEM (Gibco, cat. #11965), 10% FBS (SAFC Biosciences, cat. #12103C), 1×GPS (glutamine, penicillin and streptomycin). On day one, cells were plated on a 10 cm dish so that they are ˜80% confluent at time of transfection. Roughly 12 million cells were in a 10 cm dish at time of transfection. On day two, each dish was transfected with 48 ug DNA and 144 ul Lipofectamine 2000 (Invitrogen, cat.#11668-019). The DNA was comprised of a mixture (per 10 cm dish) containing 3 ug AAK1/HA/pIRES (full length human, NCBI accession no. NP_055726.2), 45 μg Flag/AP2MI/pcDNA (full length human), and 1.5 ml OPTI-MEM. The Lipofectamine 2000 is made up of a mixture (per 10 cm dish) containing 144 μl Lipofectamine 2000 and 1.5 ml OPTI-MEM. Each mixture was transferred to individual 15 ml tubes and incubated at RT for 5 minutes, and then the two mixes were combined and incubated at RT for 20 minutes. Growth media was then aspirated from each 10 cm plate and replaced with 10 ml of DMEM+10% FBS (no GPS). Finally, 3 ml DNA/Lipofectamine mix was added to each 10 cm dish and mix gently followed by incubate of plate overnight at 37° C. and 5% CO2.
On day three, compounds were diluted in 100% DMSO at 1000× final concentration, followed by 3-fold serial dilutions for a total of 5 concentrations tested. Four compounds were tested per 10 cm dish. One ul of each compound dilution was then pipetted into a deep-well, 96-well plate, followed by addition of 500 μl DMEM+0.5% FBS into each well for a 2× final concentration of each compound. Cells were resuspended in a 10 cm dish by simple pipetting (HEK293 cells come off the plate that easy at this point) and then transferred to a 50 ml conical tube and pelleted by centrifugation at 1000 rpm for 5 min. Cell pellets were then resuspended in 2.75 ml DMEM+0.5% FBS per 10 cm dish and 100 μl of cell suspension transferred into each well of 96-well TC plate. Finally, 100 μl of 2× compound diluted in DMEM+0.5% FBS was then added into wells containing cell suspension for a 1× final concentration. Plates were then incubated at 37° C. and 5% CO2 for 3 hours followed by transferring of cell suspensions from each well into 12-tube PCR strips. The PCR strips were spun in a tip rack at 1000 rpm for 5 minutes to pellet cells and media was then removed by pipetting without disturbing the cell pellet.
To prepare for Western Blot analysis, cell pellets were resuspend in 40 ul 1×LDS-PAGE sample buffer (Invitrogen, cat.# NP0008)+2× Halt phophatase and protease inhibitor cocktail (Thermo Scientific, cat.#1861284), followed by sonicating each with microtip sonicator set at 5 for 8-10 seconds. Five ul of 10× NuPage Sample Reducing Agent (with […]) was to each sample followed by heat denaturing at 70 C. for 10 min on PCR machine. A total of 10 μl per sample was loaded into each lane of a 4-20% Tris-Glycine Criterion 26-well gel (Biorad, cat.#345-0034) for the phospho-mu2 blot and 10 μl per lane in a 4-12% Bis-Tris (+MES buffer) NuPAGE 26-well gel (Invitrogen, cat.# WG1403BX10) for the mu2 blot. For controls, 2 ng of phospho-mu2 or 20 ng mu2/Flag proteins were loaded in the last well of each gel. After SDS-PAGE, samples on each gel were transferred to PVDF membrane using an iBlot and membranes were blocked for one hour in TBST+5% milk, followed by wash 3× for 5-10 min with TBST. Criterion gels were probed with rabbit anti-phospho-mu2 (1:5000; a rabbit polyclonal antibody produced by New England Peptide and affinity purified at Lexicon) in TBST+5% BSA, whereas, NuPAGE gels were probed with mouse anti-Flag (1:500; Sigma, cat.# F1804) in TBST+5% milk, and these primary antibodies were incubated overnight at 4° C. on a rocker.

[3] = pyrazolo[1,5-a]pyrimidine-based inhibitors
[4] = Table 1 imidazo[1,2-b]pyridazines

T2 sequence (Q2M2I8 1-863 isoform Q2M2I8-2): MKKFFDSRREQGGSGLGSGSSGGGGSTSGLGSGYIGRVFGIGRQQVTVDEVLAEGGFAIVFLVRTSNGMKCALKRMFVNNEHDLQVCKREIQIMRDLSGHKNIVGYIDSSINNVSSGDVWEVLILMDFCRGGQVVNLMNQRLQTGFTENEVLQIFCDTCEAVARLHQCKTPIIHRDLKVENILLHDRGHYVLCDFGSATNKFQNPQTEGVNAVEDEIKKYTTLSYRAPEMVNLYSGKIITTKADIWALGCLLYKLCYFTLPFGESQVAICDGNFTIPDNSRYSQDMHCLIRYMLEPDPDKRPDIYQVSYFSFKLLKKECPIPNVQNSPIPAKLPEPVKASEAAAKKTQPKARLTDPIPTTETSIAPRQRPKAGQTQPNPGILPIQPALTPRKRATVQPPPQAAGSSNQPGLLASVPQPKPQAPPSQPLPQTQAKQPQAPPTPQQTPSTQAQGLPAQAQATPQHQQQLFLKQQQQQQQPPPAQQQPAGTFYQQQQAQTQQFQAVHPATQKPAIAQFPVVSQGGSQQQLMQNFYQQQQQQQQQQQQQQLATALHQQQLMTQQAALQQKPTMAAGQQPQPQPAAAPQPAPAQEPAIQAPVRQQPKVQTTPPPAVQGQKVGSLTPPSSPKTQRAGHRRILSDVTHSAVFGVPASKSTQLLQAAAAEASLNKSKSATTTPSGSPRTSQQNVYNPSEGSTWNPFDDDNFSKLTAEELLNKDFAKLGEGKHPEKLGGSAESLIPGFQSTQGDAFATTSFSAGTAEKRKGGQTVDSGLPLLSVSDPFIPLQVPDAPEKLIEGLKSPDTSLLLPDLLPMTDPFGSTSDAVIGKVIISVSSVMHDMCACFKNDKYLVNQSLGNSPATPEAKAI
T1 sequence (Q2M2I8 1-863 isoform Q2M2I8-2): as above

| SMILES | IC50 [1, 3] | IC50 [2, 3] | IC50 [1, 4] | IC50 [2, 4] |
| --- | --- | --- | --- | --- |
| COc1ncccc1-c1cnn2ccc(N3CCN(C(=O)OCCF)CC3)nc12 | ≤ 10 nM | ≤ 10 nM |  |  |
| COCCOC(=O)N1CCN(c2ccn3ncc(-c4ccccc4OC)c3n2)CC1 | ≤ 10 nM |  |  |  |
| COc1ncccc1-c1cnn2ccc(NCCCC(F)(F)F)nc12 | ≤ 10 nM | ≤ 100 nM |  |  |
| FC(F)(F)CN1CCCC1CNc1ccn2ncc(Br)c2n1 (centres unmarked) | ≤ 10 nM | ≤ 100 nM |  |  |
| COc1ncccc1-c1cnn2ccc(N3CCN(S(=O)(=O)CC(C)C)CC3)nc12 | ≤ 100 nM |  |  |  |
| COc1ncccc1-c1cnn2ccc(N(CCCC(F)(F)F)C(C)=O)nc12 | ≤ 1000 nM |  |  |  |
| CCOc1ccccc1-c1cnn2ccc(NC[C@@H]3CCC(=O)N3CCC(C)(C)C)nc12 | ≤ 10 nM | ≤ 100 nM |  |  |
| COc1ccccc1-c1cnn2ccc(NC[C@@H]3CCC(=O)N3CCC(C)(C)C)nc12 | ≤ 10 nM | ≤ 10 nM |  |  |
| COc1ccccc1-c1cnc2ccc(NC[C@@H]3CCC(=O)N3CCC(C)(C)C)nn12 |  |  | ≤ 10 nM | ≤ 1000 nM |
| COc1ncccc1-c1cnn2ccc(NC[C@@H]3CCC(=O)N3CCC(C)(C)C)nc12 | ≤ 10 nM | ≤ 100 nM |  |  |
| COc1cnccc1-c1cnn2ccc(NC[C@@H]3CCC(=O)N3CCC(C)(C)C)nc12 | ≤ 10 nM | ≤ 100 nM |  |  |
| CC(C)(C)CCN1C(=O)CC[C@H]1CNc1ccn2ncc(-c3ccccc3)c2n1 | ≤ 10 nM |  |  |  |
| CN(C(=O)CC1CC1)[C@H]1CCN(c2ccn3ncc(-c4ccccn4)c3n2)C1 | ≤ 100 nM |  |  |  |
| COc1ccccc1-c1cnn2ccc(N3CC[C@H](N(C)C(=O)CC(F)(F)F)C3)nc12 | ≤ 100 nM |  |  |  |
| CN(C(=O)CC(C)(C)C)[C@H]1CCN(c2ccc3ncc(-c4cccnc4O)n3n2)C1 |  |  | ≤ 100 nM | ≤ 1000 nM |
| CN(C(=O)CC(F)(F)F)[C@H]1CCN(c2ccn3ncc(Br)c3n2)C1 | ≤ 100 nM |  |  |  |
| CN(C(=O)N1CCCC1)[C@H]1CCN(c2ccn3ncc(Br)c3n2)C1 | ≤ 100 nM |  |  |  |
| CN(C(=O)N1CCCC1)[C@H]1CCN(c2ccc3ncc(-c4ccccn4)n3n2)C1 |  |  | ≤ 100 nM |  |
| CCCC(=O)N(C)[C@H]1CCN(c2ccn3ncc(-c4ccccn4)c3n2)C1 | ≤ 1000 nM |  |  |  |
| COc1ccccc1-c1cnn2ccc(N3CC[C@H](N(C)C(=O)OC(C)C)C3)nc12 | ≤ 100 nM |  |  |  |
| CC(C)OC(=O)N(C)[C@H]1CCN(c2ccn3ncc(-c4ccncc4)c3n2)C1 | ≤ 100 nM |  |  |  |
| Cc1cc(-c2cnn3ccc(N4CC[C@H](N(C)C(=O)OC(C)(C)C)C4)nc23)ccn1 | ≤ 10 nM | ≤ 100 nM |  |  |
| COc1ncccc1-c1cnn2ccc(N3CCN(C(=O)OC4CCCC4)CC3)nc12 | ≤ 10 nM | ≤ 10 nM |  |  |
| CCOC(=O)N1CCN(c2ccn3ncc(-c4cccnc4OCC)c3n2)CC1 | ≤ 10 nM | ≤ 10 nM |  |  |
| CCOC(=O)N1CCN(c2ccn3ncc(-c4cccnc4OC)c3n2)CC1 | ≤ 10 nM | ≤ 100 nM |  |  |
| CCOC(=O)c1cnn2ccc(N3CCN(C(=O)OC(C)C)CC3)nc12 | ≤ 100 nM |  |  |  |
| CC(C)Cn1cc(-c2cnn3ccc(N4CCN(C(=O)OC(C)C)CC4)nc23)cn1 | ≤ 100 nM |  |  |  |
| Cc1nn(C)c(C)c1-c1cnn2ccc(N3CCN(C(=O)OC(C)C)CC3)nc12 | ≤ 100 nM |  |  |  |

| SMILES | IC50 [1, 3] | IC50 [2, 3] | IC50 [1, 4] | IC50 [2, 4] |
| --- | --- | --- | --- | --- |
| CC(C)OC(=O)N1CCN(c2ccn3ncc(-c4cccnc4Cl)c3n2)CC1 | ≤ 100 nM | ≤ 1000 nM |  |  |
| CC(C)OC(=O)N1CCN(c2ccn3ncc(-c4cccnc4O)c3n2)CC1 | ≤ 10 nM | ≤ 100 nM |  |  |
| CC(C)OC(=O)N1CCN(c2ccn3ncc(-c4cccnc4OC(C)C)c3n2)CC1 | ≤ 10 nM | ≤ 100 nM |  |  |
| COc1ncccc1-c1cnn2ccc(N3CCN(C(=O)OC(C)C)CC3=O)nc12 | ≤ 10 nM | ≤ 10 nM |  |  |
| COc1ncccc1-c1cnn2ccc(C3=CCN(C(=O)OC(C)C)CC3)nc12 | ≤ 10 nM | ≤ 10 nM |  |  |
| COc1ncccc1-c1cnn2ccc(N3CCN(C(=O)OC(C)C)C(C)(C)C3)nc12 | ≤ 100 nM |  |  |  |
| COc1ccc(-c2cnn3ccc(N4CCN(C(=O)OC(C)C)CC4)nc23)c(OC)n1 | ≤ 10 nM | ≤ 10 nM |  |  |
| CCOc1cccc(-c2cnn3ccc(N4CCN(C(=O)OC(C)C)CC4)nc23)c1 | ≤ 10 nM |  |  |  |
| COc1cc(-c2cnn3ccc(N4CCN(C(=O)OC(C)C)CC4)nc23)c(OC)nn1 | ≤ 10 nM | ≤ 10 nM |  |  |
| CC(C)OC(=O)N1CCN(c2ccn3ncc(-c4cnccc4F)c3n2)CC1 | ≤ 100 nM |  |  |  |
| COc1ccnc(-c2cnn3ccc(N4CCN(C(=O)OC(C)C)CC4)nc23)c1 | ≤ 10 nM |  |  |  |
| COc1ccncc1-c1cnn2ccc(N3CCN(C(=O)OC(C)C)CC3)nc12 | ≤ 10 nM | ≤ 100 nM |  |  |
| COc1ccc(-c2cnn3ccc(N4CCN(C(=O)OC(C)C)CC4)nc23)nc1 | ≤ 10 nM | ≤ 10 nM |  |  |
| COc1cncc(-c2cnn3ccc(N4CCN(C(=O)OC(C)C)CC4)nc23)c1 | ≤ 10 nM | ≤ 100 nM |  |  |
| COc1ccc(-c2cnn3ccc(N4CCN(C(=O)OC(C)C)CC4)nc23)cn1 | ≤ 10 nM | ≤ 1000 nM |  |  |
| CCNC(=O)c1cnn2ccc(N3CCN(C(=O)OC(C)C)CC3)nc12 | ≤ 100 nM |  |  |  |
| CC(C)NC(=O)c1cnn2ccc(N3CCN(C(=O)OC(C)C)CC3)nc12 | ≤ 1000 nM |  |  |  |
| CNC(=O)c1cnn2ccc(N3CCN(C(=O)OC(C)C)CC3)nc12 | ≤ 100 nM |  |  |  |
| CC(C)OC(=O)N1CCN(c2ccn3ncc(-c4cnccn4)c3n2)CC1 | ≤ 100 nM |  |  |  |
| CC(C)OC(=O)N1CCN(c2ccn3ncc(-c4ccccn4)c3n2)CC1 | ≤ 10 nM | ≤ 100 nM |  |  |
| CC(C)OC(=O)N1CCN(c2ccn3ncc(-c4cccnc4)c3n2)CC1 | ≤ 10 nM |  |  |  |
| CC(C)OC(=O)N1CCN(c2ccn3ncc(-c4cncnc4)c3n2)CC1 | ≤ 100 nM |  |  |  |
| CC(C)OC(=O)N1CCN(c2ccn3ncc(C(C)C)c3n2)CC1 | ≤ 100 nM |  |  |  |
| CC(C)OC(=O)N1CCN(c2ccn3nccc3n2)CC1 | ≤ 10 nM |  |  |  |
| COc1ncccc1-c1cnn2ccc(N3CC(N(C)C(=O)OC(C)C)C3)nc12 | ≤ 100 nM |  |  |  |
| CC(C)(C)OC(=O)N1CC=C(c2ccn3nccc3n2)CC1 | ≤ 100 nM |  |  |  |
| COc1ncccc1-c1cnn2ccc(N3CC(N(C)C(=O)OC(C)(C)C)C3)nc12 | ≤ 1000 nM |  |  |  |
